The target of assay [1] is T1, CK1γ1 (Homo sapiens, UniProt Q9HCP0).
T1 construct: purchased Eurofins
Kind of assay: Eurofins kinase enzymatic radiometric assay, CK1γ1. The note with it: Km = ATP, 9-pt curve in duplicate. In kind it is biochemical. The source says: Details related to the substrate used, protein constructs, controls, and assay protocol for each kinase assay are included on the Eurofins website: https://www.eurofinsdiscoveryservices.com/.

Assay [2] addresses T1, CK1γ1. Briefly: scanMAX binding assay, CK1γ1. To be noted: Percent of Control; legend and method: 1 μM; read-out: CK1γ1 PoC @ 1 µM. From the text: (§1) As described previously, this commercial assay platform screens against 403 WT human kinases in binding assays and provides PoC values ([73]).
Another assay has as its target T2, DYRK1A (Homo sapiens, UniProt Q13627).
T2 construct: purchased Eurofins DiscoverX Corporation
Briefly: scanMAX binding assay, DYRK1A. To be noted: Percent of Control; legend and method: 1 μM; read-out: DYRK1A PoC @ 1mM.
From the text: as §1

The target of another assay is CSNK1A1 (Homo sapiens, UniProt P48729). Briefly: scanMAX binding assay, CSNK1A1. The note with it: Percent of Control; legend and method: 1 μM; read-out: CSNK1A1 PoC @ 1 µM.
Sequence of CSNK1A1 (P48729 whole entry): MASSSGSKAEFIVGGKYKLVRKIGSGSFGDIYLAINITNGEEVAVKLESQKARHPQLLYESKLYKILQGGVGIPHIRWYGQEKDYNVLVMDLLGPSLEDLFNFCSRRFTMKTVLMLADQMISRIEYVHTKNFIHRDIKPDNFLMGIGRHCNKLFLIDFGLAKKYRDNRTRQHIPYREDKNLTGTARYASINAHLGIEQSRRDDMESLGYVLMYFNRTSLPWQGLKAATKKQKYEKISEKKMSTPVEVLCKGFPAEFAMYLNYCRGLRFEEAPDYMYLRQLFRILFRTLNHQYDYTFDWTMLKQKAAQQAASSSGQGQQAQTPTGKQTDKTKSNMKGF
From the text: as §1

Another assay has as its target T3, ADCK3 (Homo sapiens, UniProt Q8NI60).
T3 construct: purchased Eurofins DiscoverX Corporation (scanMAX)
Kind of assay: scanMAX binding assay, ADCK3. The note with it: Percent of Control; legend and method: 1 μM; read-out: ADCK3 PoC @ 1 µM.
From the text: as §1

For a further assay, the target named is CSNK1A1L (Homo sapiens, UniProt Q8N752). Briefly: scanMAX binding assay, CSNK1A1L. To be noted: Percent of Control; legend and method: 1 μM; read-out: CSNK1A1L PoC @ 1 µM.
Sequence of CSNK1A1L (Q8N752 whole entry): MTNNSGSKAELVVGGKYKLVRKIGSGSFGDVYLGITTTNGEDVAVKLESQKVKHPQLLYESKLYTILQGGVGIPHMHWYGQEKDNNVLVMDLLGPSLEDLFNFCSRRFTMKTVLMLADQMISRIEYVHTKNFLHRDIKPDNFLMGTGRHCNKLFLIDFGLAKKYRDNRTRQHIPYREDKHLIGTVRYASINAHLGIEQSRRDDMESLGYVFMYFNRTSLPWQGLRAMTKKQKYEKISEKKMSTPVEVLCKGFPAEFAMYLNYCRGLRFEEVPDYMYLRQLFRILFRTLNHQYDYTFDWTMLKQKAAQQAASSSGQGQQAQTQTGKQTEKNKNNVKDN
From the text: as §1

The next assay concerns the target T4, TAK1 (Homo sapiens, UniProt O43318).
T4 construct: purchased Eurofins DiscoverX Corporation (scanMAX)
Kind of assay: scanMAX binding assay, TAK1. To be noted: Percent of Control; legend and method: 1 μM; read-out: TAK1 PoC @ 1 µM.
From the text: as §1

Another assay addresses T5, GSK3β (NLuc-GSK3β) (Homo sapiens, UniProt P49841).
T5 construct: host or cells: HEK293T
Kind of assay: NanoBRET cellular target engagement assay, NLuc-GSK3β in HEK293T cells. Type of assay: cell-based. To be noted: live HEK293T cells, 0.063 μM tracer K-8; read-out: GSK3β NanoBRET assay, inactive up to. As to the method:
HEK293T cells (hypotriploid, fetal) were purchased from ATCC. These cells were grown in Dulbecco’s modified Eagle’s medium (Gibco) supplemented with 10% (v/v) fetal bovine serum (Corning). They were incubated in 5% CO2 at 37 °C and passaged every 72 h with trypsin and not allowed to reach confluency. Constructs for NanoBRET measurements of CK1γ2 (NLuc-CK1γ2) and GSK3β (NLuc-GSK3β) were kindly provided by Promega. NanoBRET assays were carried out as described previously ([74]). Preferred NLuc orientations, both N-terminal in this case, are indicated in parentheses after each construct. Assays were carried out in dose–response as described by the manufacturer using 0.5 μM of tracer K-10 for CK1γ2 and 0.063 μM of tracer K-8 for GSK3β. Two biological replicates were executed with two technical replicates to produce the graphs with error bars shown in Figures 6E, 7E, 8, A and B. Tracer titration curves for these kinases that motivated our tracer selection and working concentration can be found on the Promega website.

Assay [3] deals with BAR reporter (β-catenin-dependent WNT signaling). Kind of assay: BAR luciferase transcriptional reporter assay in HEK293T B/R cells. In kind it is cell-based, human. The note with it: HEK293T B/R cells transfected 14 h, 0.1, 1.0 or 10 μM FP1 for 18 h. The procedure:
All luciferase reporter assays were performed as previously described ([15], [43]). […] In both loss-of-function and gain-of-function experiments, treatments (WNT3A CM or drug) were added 18 h before harvesting cells. Conditions were plated in triplicate, and Renilla normalized values were averaged across triplicates to yield the data presented and standard error. Each assay was repeated in biological triplicate, unless otherwise stated. Firefly luciferase and the Renilla control were detected using the Promega Dual-Luciferase Reporter Assay System per the manufacturer’s protocol (Promega; catalog no.: E1960). Plates were read on the Victor Nivo plate reader (PerkinElmer).

“And” between values parts separate entries of the source, which are not always exact repeats. Equal values may be shown once.

T1 sequence (Q9HCP0 whole entry): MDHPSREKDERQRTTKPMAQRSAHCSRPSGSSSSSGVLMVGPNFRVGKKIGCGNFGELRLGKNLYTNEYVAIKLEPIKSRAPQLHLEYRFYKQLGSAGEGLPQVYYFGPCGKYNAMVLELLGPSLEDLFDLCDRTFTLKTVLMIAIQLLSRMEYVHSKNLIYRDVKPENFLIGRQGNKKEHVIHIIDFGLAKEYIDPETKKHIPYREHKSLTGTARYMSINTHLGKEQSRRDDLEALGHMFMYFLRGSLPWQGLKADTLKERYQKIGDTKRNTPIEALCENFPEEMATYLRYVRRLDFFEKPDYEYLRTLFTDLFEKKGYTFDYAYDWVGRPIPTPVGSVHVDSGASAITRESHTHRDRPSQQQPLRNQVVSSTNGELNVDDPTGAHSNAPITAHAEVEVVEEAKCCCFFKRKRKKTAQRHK
T5 sequence (P49841 whole entry): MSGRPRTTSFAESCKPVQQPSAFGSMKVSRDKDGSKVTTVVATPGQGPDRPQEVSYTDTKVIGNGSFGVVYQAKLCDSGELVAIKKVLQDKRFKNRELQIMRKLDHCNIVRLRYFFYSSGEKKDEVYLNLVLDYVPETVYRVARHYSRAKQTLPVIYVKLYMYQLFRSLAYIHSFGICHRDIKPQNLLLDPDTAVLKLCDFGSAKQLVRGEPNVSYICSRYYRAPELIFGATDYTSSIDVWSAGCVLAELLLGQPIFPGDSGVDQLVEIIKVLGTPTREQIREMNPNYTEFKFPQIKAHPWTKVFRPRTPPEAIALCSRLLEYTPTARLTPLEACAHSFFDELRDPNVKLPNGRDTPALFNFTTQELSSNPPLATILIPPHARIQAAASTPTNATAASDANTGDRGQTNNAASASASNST
T3 sequence (Q8NI60 163-647): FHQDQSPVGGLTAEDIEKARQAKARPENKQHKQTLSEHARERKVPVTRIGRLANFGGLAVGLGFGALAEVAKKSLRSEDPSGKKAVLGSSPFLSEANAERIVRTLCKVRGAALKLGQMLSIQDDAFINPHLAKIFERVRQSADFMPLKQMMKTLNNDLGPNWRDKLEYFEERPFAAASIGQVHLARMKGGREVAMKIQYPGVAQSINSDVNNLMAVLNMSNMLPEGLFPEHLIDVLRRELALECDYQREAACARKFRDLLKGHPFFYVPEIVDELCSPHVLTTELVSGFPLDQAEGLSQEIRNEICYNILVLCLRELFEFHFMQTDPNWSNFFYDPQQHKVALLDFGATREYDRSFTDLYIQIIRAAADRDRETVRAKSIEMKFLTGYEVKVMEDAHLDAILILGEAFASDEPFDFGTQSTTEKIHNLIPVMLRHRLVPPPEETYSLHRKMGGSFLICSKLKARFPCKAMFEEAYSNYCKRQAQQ
T4 sequence (O43318 whole entry): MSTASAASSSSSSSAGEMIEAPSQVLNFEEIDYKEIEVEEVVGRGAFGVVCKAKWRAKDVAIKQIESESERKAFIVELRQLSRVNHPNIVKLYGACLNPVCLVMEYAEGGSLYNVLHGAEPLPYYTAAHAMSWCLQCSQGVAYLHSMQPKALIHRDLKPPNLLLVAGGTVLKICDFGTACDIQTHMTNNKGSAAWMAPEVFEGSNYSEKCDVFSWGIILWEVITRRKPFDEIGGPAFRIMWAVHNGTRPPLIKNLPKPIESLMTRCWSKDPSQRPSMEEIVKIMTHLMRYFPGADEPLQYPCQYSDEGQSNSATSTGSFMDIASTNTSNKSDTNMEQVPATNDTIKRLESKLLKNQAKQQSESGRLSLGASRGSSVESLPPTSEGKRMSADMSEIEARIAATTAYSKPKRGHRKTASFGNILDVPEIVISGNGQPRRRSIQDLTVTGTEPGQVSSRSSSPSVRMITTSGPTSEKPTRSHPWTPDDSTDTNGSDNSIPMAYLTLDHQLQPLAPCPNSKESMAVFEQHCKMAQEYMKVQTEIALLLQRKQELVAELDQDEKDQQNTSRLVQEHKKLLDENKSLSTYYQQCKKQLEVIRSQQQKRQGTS

As to `COc1cnc(COc2ccc(F)c(F)c2)cc1-c1cc2c([nH]1)CCNC2=O` [FP1-24-2, 2-(2-((3,4-difluorophenoxy)methyl)-5-methoxypyridin-4-yl)-1,5,6,7-tetrahydro-4H-pyrrolo[3,2-c]pyridin-4-one], the IC50 at CK1γ1 [1] was < 15 nM and 5.29 nM; at GSK3β (NLuc-GSK3β) it was more than 10000 nM. In addition, the remaining binding at 1 µM on CK1γ1 [2] worked out at 8.5%; at CSNK1A1, 3.1%; on ADCK3, 5.4%; on CSNK1A1L it was 5.9%; on TAK1, 6.9%. The remaining binding at 1000 µM on DYRK1A was 0.1%. In addition, the “BAR activity with CK1γ3 overexpression” value in [3] was “decrease”.

(Values after PMC9157009, “Protein proximity networks and functional evaluation of the casein kinase 1 gamma family reveal unique roles for CK1γ3 in WNT signaling” (The Journal of Biological Chemistry, 2022).)
